Columns and labels:
[1] = test system: acetylated histone H3 (Ac-H3K9) in HT-29 cells; assay: Western blot of acetylated histone H3 (Ac-H3K9) in HT-29 cells; type: cell-based, human; settings: 10 µM, 6 h
Description: HT-29 cells were treated with selected compounds for 6 h at 10 µM, lysed, and then processed as previously described.
Antibodies directed against total histone H3 and its acetylated form (Ac-H3K9) were purchased from Cell Signaling Technology, Danvers, Massachusetts, while anti-vinculin antibody was purchased from Santa Cruz Biotechnology. Membranes were visualized using ECL select (GE Healthcare), and images were acquired using the iBright FL1500 Imaging System (Thermo Fisher Scientific, Waltham, MA, USA). Anti-vinculin (1:25,000, Santa Cruz Biotechnology, Dallas, TX, USA) was used as loading controls.

[2] = test system: tubulin (colchicine site); assay: Inhibition of [3H]colchicine binding to tubulin; set-up: species or system bovine; settings: tubulin 0.5 µM, [3H]colchicine 5 µM, tested compound 5 µM
Description: (§1) Bovine brain tubulin was purified as described previously. To evaluate the effects of the compounds on tubulin assembly in vitro [77], varying concentrations were preincubated with 10 μM tubulin in 0.8 M monosodium glutamate (pH 6.6) at 30 °C, and the reaction mixtures were then cooled to 0 °C. After addition of GTP, the mixtures were transferred to 0 °C cuvettes in Beckman Coulter (Brea, CA, USA) DU-7400/DU-7500 recording spectrophotometers equipped with electronic temperature controllers and were warmed to 30 °C, and the assembly of tubulin was observed turbidimetrically. […] Inhibition of colchicine binding to tubulin was measured as described before, except that the reaction mixtures contained 0.5 μM tubulin and 5 μM each of [^3H]colchicine and test compound. Only one DEAE-cellulose filter was used per sample, and filtration was via gravity.

HeLa cells = assay: In vitro growth inhibition (resazurin, 72 h), HeLa; type: cell-based; settings: Homo sapiens, concentration inhibiting tumor cell proliferation by 50%, mean ± SE
HT-29 cells [3] = assay: Annexin V-PI flow cytometric analysis of apoptosis, HT-29; type: cell-based, human; settings: 96 h
Description: The quantification of apoptosis induced by the test compounds was carried out with flow cytometric analysis using the Annexin-V Fluos kit (Roche Diagnostics, Milan, Italy) following the manufacturer’s instructions. Cancer cells treated with the test compounds for the indicated time points and concentrations were then labeled with annexin V/FITC and PI and analyzed with BD FACS Celesta^TM Flow Cytometer (BD Bioscience, Franklin Lakes, NJ, USA) using the FL1 and FL3 channel, respectively, and FlowJo_v10.7.1 software.

MCF-7 cells = assay: In vitro growth inhibition (resazurin, 72 h), MCF-7; type: cell-based; settings: Homo sapiens, MCF7, mean ± SE
HT-29 cells [4] = assay: Cell cycle analysis (PI, flow cytometry); type: cell-based, human; settings: 250 nM for 24 h (figure legend)
Description: HT29 cells were treated with the indicated compounds for 24 h and then harvested and fixed in 70% ice-cold ethanol for 24 h. The cells were next treated with a 0.1% v/v solution of Triton X-100 in phosphate buffered saline (PBS) containing 10 μg/mL RNAse A and 20 μg/mL PI. The cells were incubated at room temperature for 30 min and then analyzed on a BD FACS Celesta^TM Flow Cytometer (BD Bioscience, Franklin Lakes, NJ, USA) in the FL3 channel. DNA histograms were analyzed using FlowJo_v10.7.1 software (BD Bioscience, Franklin Lakes, NJ, USA).

HT-29 cells [5] = assay: In vitro growth inhibition (resazurin, 72 h), HT-29; type: cell-based; settings: Homo sapiens, mean ± SE
bovine brain tubulin = assay: Inhibition of tubulin polymerization (turbidimetric); type: biochemical; settings: tubulin at 10 μM; 20 min incubation at 30 °C; read-out: Tubulin Assembly IC50 ± SD
Description: as §1

human recombinant HDAC6 = molecular target: T1, human recombinant HDAC6 (Homo sapiens, UniProt Q9UBN7); assay: HDAC isoform inhibition, fluorogenic substrate, HDAC6; type: biochemical; settings: mean ± SE, read-out: IC50 (µM) hHDAC6
T1 construct: purchased BPS Bioscience 50056
T1 sequence (Q9UBN7 1-1215): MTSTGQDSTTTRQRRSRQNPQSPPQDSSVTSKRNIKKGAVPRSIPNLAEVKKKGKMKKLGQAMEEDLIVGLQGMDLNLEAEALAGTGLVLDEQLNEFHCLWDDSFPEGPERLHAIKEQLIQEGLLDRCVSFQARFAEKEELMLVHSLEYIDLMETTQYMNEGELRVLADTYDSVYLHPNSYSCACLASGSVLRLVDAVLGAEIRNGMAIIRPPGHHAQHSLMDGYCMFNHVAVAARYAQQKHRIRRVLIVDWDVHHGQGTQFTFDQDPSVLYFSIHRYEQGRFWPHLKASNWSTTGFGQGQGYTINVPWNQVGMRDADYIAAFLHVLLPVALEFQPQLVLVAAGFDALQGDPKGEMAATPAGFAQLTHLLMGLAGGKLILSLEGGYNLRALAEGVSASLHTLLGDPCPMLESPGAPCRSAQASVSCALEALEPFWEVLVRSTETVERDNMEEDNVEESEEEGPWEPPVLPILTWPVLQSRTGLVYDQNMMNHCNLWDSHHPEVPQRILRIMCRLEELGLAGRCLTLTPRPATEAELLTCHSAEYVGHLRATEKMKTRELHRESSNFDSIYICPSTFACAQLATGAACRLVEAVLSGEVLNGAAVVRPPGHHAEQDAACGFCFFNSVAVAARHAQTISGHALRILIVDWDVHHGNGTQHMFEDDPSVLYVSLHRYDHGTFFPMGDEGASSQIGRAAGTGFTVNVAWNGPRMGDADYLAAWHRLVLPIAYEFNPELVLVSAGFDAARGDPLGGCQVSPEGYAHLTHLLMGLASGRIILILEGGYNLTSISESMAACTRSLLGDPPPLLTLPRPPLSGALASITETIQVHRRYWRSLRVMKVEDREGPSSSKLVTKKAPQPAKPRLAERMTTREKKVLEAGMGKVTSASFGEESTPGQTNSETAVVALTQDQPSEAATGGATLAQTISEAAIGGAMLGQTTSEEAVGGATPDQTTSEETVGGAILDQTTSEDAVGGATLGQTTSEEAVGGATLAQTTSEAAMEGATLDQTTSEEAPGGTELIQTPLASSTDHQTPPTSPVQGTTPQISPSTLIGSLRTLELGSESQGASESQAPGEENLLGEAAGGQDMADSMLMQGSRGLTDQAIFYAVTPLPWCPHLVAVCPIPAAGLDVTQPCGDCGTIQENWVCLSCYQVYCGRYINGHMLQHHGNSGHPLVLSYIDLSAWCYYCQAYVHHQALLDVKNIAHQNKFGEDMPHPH
Description: Further experiments were also carried out to evaluate the inhibitory activities of test compounds on selected HDAC isoforms. […] Following an incubation of 15 min at RT, fluorescence was measured in an EnSight multimodal plate reader (PerkinElmer, Boston, MA, USA) with an excitation wavelength of 360 nm and an emission wavelength of 450 nm.

[6] = test system: human peripheral blood mononuclear cells (PBMC), not stimulated with PHA; assay: Cytotoxicity in resting PBMC (resazurin, 72 h); type: cell-based; settings: mean ± SEM
Text: (§2) Peripheral blood mononuclear cells (PBMC), obtained from human peripheral blood (leucocyte-rich plasma-buffy coats) of healthy volunteers using a Lymphoprep^TM (Serumwerk Bernburg AG) gradient, were used for the evaluation of the cytotoxic potential of compounds in normal human cells.
(§3) After extensive washing with saline solution (Hank’s Buffer Saline Solution, BioConcept, Allschwil, Switzerland), quiescent PBMCs were resuspended (1.0 × 10^6 cells/mL) in RPMI-1640 medium supplemented with 10% FBS. To evaluate cytotoxicity in proliferating PBMCs cultures, cells were resuspended at a concentration of 5 × 10^5 cells/mL in a growth medium containing […] of PHA (Irvine Scientific, Santa Ana, CA, USA). The same cellular density was utilized for resting PBMC cultures, without the addition of PHA. The tested compounds were added at different concentrations, and after a 72 h incubation, cell viability was determined using the resazurin test as described above.

[7] = test system: human peripheral blood mononuclear cells (PBMC) stimulated with PHA; assay: Cytotoxicity in PHA-stimulated PBMC (resazurin, 72 h); type: cell-based; settings: mean ± SEM
Text: as §2, §3

MDA-MB-231 cells = assay: In vitro growth inhibition (resazurin, 72 h), MDA-MB-231; type: cell-based; settings: Homo sapiens, mean ± SE
A549 cells = assay: In vitro growth inhibition (resazurin, 72 h), A549; type: cell-based; settings: Homo sapiens, mean ± SE

For `COc1cc2oc(C(=O)c3cc(OC)c(OC)c(OC)c3)cc2cc1/C=C/C(=O)NO` [Compound 6i, (E)-N-Hydroxy-3-(6-methoxy-2-(3,4,5-trimethoxybenzoyl)benzofuran-5-yl)acrylamide], the “acetylated histone H3 (Ac-H3K9) level, Western blot” value [1] was “significantly increased acetylated histone H3 (Ac-H3K9)”, the “Colchicine Binding % Inhibition ± SD” value [2] was 43 ± 4% and the IC50 (HeLa cells) was 14.8 ± 0.32 nM. For the same compound, the “induction of apoptosis / cell death (annexin V/PI), in words” value (HT-29 cells [3]) was “able to induce cell apoptosis”, the IC50 (MCF-7 cells) was 69 ± 6 nM and the “Percentage of HT-29 cells in G1 phase” value (HT-29 cells [4]) was 4.13%. For the same compound, the “Percentage of HT-29 cells in G2/M phase” value (HT-29 cells [4]) was 91.07%, the “Percentage of HT-29 cells in S phase” value (HT-29 cells [4]) was 4.79% and the IC50 (HT-29 cells [5]) was 272 ± 2.03 nM. It also gave an IC50 (bovine brain tubulin) of 1600 ± 300 nM, an IC50 (human recombinant HDAC6) of 5.16 ± 0.34 µM and a GI50 [6] greater than 10 µM. It also gave a GI50 [7] of 2.32 ± 0.23 µM, an IC50 (MDA-MB-231 cells) of 93.7 ± 2.04 nM and an IC50 (A549 cells) of 304 ± 1.46 nM.
